Experiment [1] concerns HCV genotype 1b (Con1) replicon in HUH-7 cells. As to the kind of experiment: HCV replicon luciferase reporter assay, genotype 1b. The experiment is classed as cell-based. Conditions: HCV genotype 1b replicon luciferase, 3 days incubation, read-out: LE_1b (EC50, range). An outline of the steps: (§1)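 Replicon inhibition for both genotypes was measured as Renilla luciferase signal (EnduRen, 7.5 μM final, 2 h) after 3-day, 37° C exposure of replicon-bearing HUH-7 cells in 4% FCS DMEM, 0.5% DMSO. The 1b construct carries S1179I; the 1a H77 construct carries P1496L and S2204I. Twenty-point, 3-fold dilutions were fitted four-parametrically for EC50, and CC50 was taken from multiplexed Cell Titer-Blue.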
For orientation: A replicon is a self-replicating genome or part of one, used to study replication in cells.

Experiment [2] deals with HCV genotype 1a (H77 strain) replicon in HUH-7 cells. As to the kind of experiment: HCV replicon luciferase reporter assay, genotype 1a. The experiment is classed as cell-based. Conditions: HCV genotype 1a replicon luciferase, 3 days incubation, read-out: LE_1a (EC50, range). An outline of the steps:
as §1

SMILES strings stand for the structures. Like-named read-outs stand apart in the source and are kept apart here.

For the compound `COc1cc2ccnc(O[C@@H]3C[C@H]4C(=O)N[C@]5(C(=O)NS(=O)(=O)C6(C)CC6)C[C@H]5/C=C\CC[C@@H](C)C[C@@H](C)[C@H](NC(=O)OC(C)(C)C(C)(F)F)C(=O)N4C3)c2cc1OC` [Compound 5377, 3,3-difluoro-2-methylbutan-2-yl((2R,6S,7R,9R,13aS,14aR,16aS,Z)-2-((6,7-dimethoxyisoquinolin-1-yl)oxy)-7,9-dimethyl-14a-(((1-methylcyclopropyl)sulfonyl)carbamoyl)-5,16-dioxo-1,2,3,5,6,7,8,9,10,11,13a,14,14a,15,16,16a-hexadecahydrocyclopropa[e]pyrrolo[1,2-a][1,4]diazacyclopentadecin-6-yl)carbamate], the half-maximal effective concentration (EC50) fell in the range of 1.01 to 5 nM in experiment [1] (Hepatitis C virus, Huh-7, 72 h) and 1.01 to 5 nM in experiment [2] (Hepatitis C virus, Huh-7, 72 h).
Turning to `COc1cc2ccnc(O[C@@H]3C[C@H]4C(=O)N[C@]5(C(=O)NS(=O)(=O)C6(C)CC6)C[C@H]5/C=C\CC[C@@H](C)C[C@@H](C)[C@H](NC(=O)OC(C)(C)C)C(=O)N4C3)c2cc1OC` [Compound 5379, tert-butyl ((2R,6S,7R,9R,13aS,14aR,16aS,Z)-2-((6,7-dimethoxyisoquinolin-1-yl)oxy)-7,9-dimethyl-14a-(((1-methylcyclopropyl)sulfonyl)carbamoyl)-5,16-dioxo-1,2,3,5,6,7,8,9,10,11,13a,14,14a,15,16,16a-hexadecahydrocyclopropa[e]pyrrolo[1,2-a][1,4]diazacyclopentadecin-6-yl)carbamate], the EC50 lay in the range of 1.01 to 5 nM in experiment [1] (Hepatitis C virus, Huh-7, 72 h) and 1.01 to 5 nM in experiment [2] (Hepatitis C virus, Huh-7, 72 h).
Consider `COc1cc2ccnc(O[C@@H]3C[C@H]4C(=O)N[C@]5(C(=O)NS(=O)(=O)C6(CF)CC6)C[C@H]5/C=C\CC[C@@H](C)C[C@@H](C)[C@H](NC(=O)OC(C)(C)C(F)(F)F)C(=O)N4C3)c2cc1OC` [Compound 5381, 1,1,1-trifluoro-2-methylpropan-2-yl((2R,6S,7R,9R,13aS,14aR,16aS,Z)-2-((6,7-dimethoxyisoquinolin-1-yl)oxy)-14a-(((1-(fluoromethyl)cyclopropyl)sulfonyl)carbamoyl)-7,9-dimethyl-5,16-dioxo-1,2,3,5,6,7,8,9,10,11,13a,14,14a,15,16,16a-hexadecahydrocyclopropa[e]pyrrolo[1,2-a][1,4]diazacyclopentadecin-6-yl)carbamate], for which the EC50 lay within 1.01 to 5 nM in experiment [1] (Hepatitis C virus, Huh-7, 72 h) and 1.01 to 5 nM in experiment [2] (Hepatitis C virus, Huh-7, 72 h).
On to `COc1cc2ccnc(O[C@@H]3C[C@H]4C(=O)N[C@]5(C(=O)NS(=O)(=O)C6(CF)CC6)C[C@H]5/C=C\CC[C@@H](C)C[C@@H](C)[C@H](NC(=O)OC(C)(C)C(F)(F)F)C(=O)N4C3)c2cc1OC` [Compound 5383, 1,1,1-trifluoro-2-methylpropan-2-yl((2R,6S,7R,9R,13aS,14aR,16aS,Z)-2-((6,7-dimethoxyisoquinolin-1-yl)oxy)-14a-(((1-(fluoromethyl)cyclopropyl)sulfonyl)carbamoyl)-7,9-dimethyl-5,16-dioxo-1,2,3,5,6,7,8,9,10,11,13a,14,14a,15,16,16a-hexadecahydrocyclopropa[e]pyrrolo[1,2-a][1,4]diazacyclopentadecin-6-yl)carbamate], for which the EC50 in experiment [1] was 1.01 to 5 nM; in experiment [2], 5.01 to 35 nM.
Take `COc1cc2ccnc(O[C@@H]3C[C@H]4C(=O)N[C@]5(C(=O)NS(=O)(=O)C6(CF)CC6)C[C@H]5/C=C\CC[C@@H](C)C[C@@H](C)[C@H](NC(=O)OC(C)(C)C)C(=O)N4C3)c2cc1OC` [Compound 5385, tert-butyl ((2R,6S,7R,9R,13aS,14aR,16aS,Z)-2-((6,7-dimethoxyisoquinolin-1-yl)oxy)-14a-(((1-(fluoromethyl)cyclopropyl)sulfonyl)carbamoyl)-7,9-dimethyl-5,16-dioxo-1,2,3,5,6,7,8,9,10,11,13a,14,14a,15,16,16a-hexadecahydrocyclopropa[e]pyrrolo[1,2-a][1,4]diazacyclopentadecin-6-yl)carbamate]: the EC50 in experiment [1] (Hepatitis C virus, Huh-7, 72 h) lay in the range of 1.01 to 5 nM; in experiment [2] (Hepatitis C virus, Huh-7, 72 h) it was 5.01 to 35 nM.

In general, EC50 refers to the concentration giving half of the maximal effect.

Source of the values: patent US9499550B2 (BRISTOL-MYERS SQUIBB COMPANY, priority 2012, dated 2016).
